Assay: Pharmacokinetic study in rats after oral administration of Radix Ginseng Rubra or SMS extracts (LC-MS of plasma)
Assay type: in vivo, Male Sprague-Dawley rats
Set-up: AUC(0–t) / AUC(0–∞): unit not given here
Settings: for T max / AUC(0–t) / AUC(0–∞) / C max / t 1/2: rat plasma; for AUC(0–t) / AUC(0–∞) / C max / t 1/2: mean ± SD
From the text: A Shimadzu 2020 LC-MS system, with an electrospray ionization interface (ESI) source and Shimadzu LCMS LabSolution Workstation software for data processing, was utilized to perform the analytical procedures. The system includes two Shimadzu LC-20AD pumps, a Shimadzu SIL-20A autosampler, a Shimadzu CTO-20A column oven, a CBM-20A system controller, and a Shimadzu DGU-20A3 online degasser. A Q-array-octapole-quadrupole mass analyzer was used as the detector.
The chromatographic separation was carried on a Diamonsil C18 column (150 mm × 4.6 mm id, 5 μm; Dikma, China) with the mobile phase containing 0.5 mmol/L ammonium chloride in double-distilled water (A) and acetonitrile (B) at a flow rate of 1.0 mL/min. A diverter valve was used to direct 0.3 mL/min HPLC elute to MS detector and 0.7 mL/min elute to a waste container. A gradient elution program was used as follows: 0.01→6.0 min, 38% B; 6.0→6.5 min, 38→50% B; 6.5→15.0 min, 50% B; 15.0→15.5 min, 50→38% B. The column temperature was kept constant at 40°C.
The negative-ion electrospray ionization mode was utilized under the following source conditions: curved desolvation line (CDL) temperature, 250°C; block temperature, 400°C; interface temperature, 350°C; nebulizing gas flow rate, 1.5 L/min; drying gas flow rate, 10 L/min. CDL voltage, 0 V; Q-array DC (direct current) voltage, 0 V; interface voltage and RF ([…] frequency) voltage were fixed as those in tuning. The chlorinated adducts of molecular ions [M + Cl]^− of 20(R)-ginsenoside Rh1 and 20(S)-ginsenoside Rh1 at m/z 673.45, 20(R)-ginsenoside Rg3 and 20(S)-ginsenoside Rg3 at m/z 819.60, and digoxin (IS) at m/z 815.60 were monitored in selected ion monitoring (SIM) mode.
Radix Ginseng Rubra and Radix Ophiopogonis were cut into slices and Fructus Schisandrae was scrunched into powder before use. Three drugs were mixed in the ratio of 1 : 3 : 1.5 and the total weight was 110 g. The mixture was extracted with water for three times (1 : 10, 1 : 8, and 1 : 6, w/v) at 100°C, 1 h for each time. The SMS extract was obtained and condensed to 0.55 g/mL crude drug. 20 g Radix Ginseng Rubra was treated as above and the extract was condensed to 0.1 g/mL crude drug. SMS and Radix Ginseng Rubra concentrated solution was subjected to D101 macroporous resin and eluted with water followed by 95% ethanol. The 95% ethanol eluate was further concentrated to 5.5 g/mL crude drug for SMS and 1.0 g/mL crude drug for Radix Ginseng Rubra before use.
An aliquot of 300 μL plasma sample was transferred into a centrifuge tube together with 10 μL of IS solution. After vortex-mixing for 30 s, the analytes and IS were extracted from plasma with n-butanol for three times (1 : 3, 1 : 2, and 1 : 2, v/v). Then the organic layer was transferred into another centrifuge tube and evaporated to dryness at 37°C. Finally, the residue was reconstituted in 20 μL methanol and centrifuged at 12,000 ×g for 10 min; 10 μL aliquot was injected into chromatographic system for analysis.
Male Sprague-Dawley rats, 193–215 g in weight, were supplied by Shanghai Slater Experimental Animal Feeding Center (Shanghai, China). The rats were kept in an air-conditioned animal quarter at a temperature of 22 ± 2°C and a relative humidity of 50 ± 10%. The animals were acclimatized to the facilities for four days and then fasted with free access to water for 12 h prior to experiment. Animal experiments were carried out in accordance with the Regulations of Experimental Animal Administration issued by the Ministry of Science and Technology of China. All animal protocols were approved by the Ethics Committee on the Care and Use of Laboratory Animals of China pharmaceutical University.
Rats were divided randomly into two groups (5 rats in each time point per group) and given an oral dose of 1.35 mL/100 g Radix Ginseng Rubra and SMS extracts, respectively, which was derived from the dose in clinical practice with correction. […]

[1] = oral Radix Ginseng Rubra extract 1.35 mL/100 g

CC(C)=CCCC(C)(O)C1CCC2C1C(O)CC1C2(C)CC(OC2OC(CO)C(O)C(O)C2O)C2C(C)(C)C(O)CCC21C [20(S)-Rh1, 20(S)-ginsenoside Rh1]
AUCC (oral Radix Ginseng Rubra extract 1.35 mL/100 g, dose-corrected AUC0–∞): 159.20 ± 26.03
T max [1]: 0.50 h
AUC(0–t) [1]: 157.53 ± 25.46
AUC(0–∞) [1]: 159.27 ± 26.03
C max [1]: 152.49 ± 30.98 ng/mL
t 1/2 [1]: 2.85 ± 0.69 h
T max (oral SMS extract 1.35 mL/100 g): 1.50 h
AUC(0–t) (oral SMS extract 1.35 mL/100 g): 409.48 ± 62.23
AUC(0–∞) (oral SMS extract 1.35 mL/100 g): 419.75 ± 65.31
C max (oral SMS extract 1.35 mL/100 g): 195.34 ± 44.91 ng/mL
t 1/2 (oral SMS extract 1.35 mL/100 g): 4.21 ± 1.05^∗ h

Reference: PMC5460445, “Pharmacokinetic Comparison of 20(R)- and 20(S)-Ginsenoside Rh1 and 20(R)- and 20(S)-Ginsenoside Rg3 in Rat Plasma following Oral Administration of Radix Ginseng Rubra and Sheng-Mai-San Extracts” (Evidence-based Complementary and Alternative Medicine : eCAM, 2017)
